Source: ChEMBL document CHEMBL4706637, “Design, synthesis and biological evaluation of thioether-containing lenalidomide and pomalidomide derivatives with anti-multiple myeloma activity” (Eur J Med Chem, 2021)
Active and inactive are the calls of the source. The rule behind the calls is not given here.

Legend:
[1] = target: DNA-binding protein Ikaros (Homo sapiens) (UniProt Q13422); test: Induction of IKZF1 degradation in human MM1.S cells assessed as reduction in IKZF1 level incubated for 12 hrs by immunoblot analysis; type: cell-based; settings: dose 0.02-2 µM
[2] = target: Zinc finger protein Aiolos (Homo sapiens) (UniProt Q9UKT9); test: Induction of IKZF3 degradation in human MM1.S cells assessed as reduction in IKZF3 level incubated for 12 hrs by immunoblot analysis; type: cell-based; settings: dose 0.02-2 µM
[3] = target: Zinc finger protein Aiolos (Homo sapiens) (UniProt Q9UKT9); test: Induction of IKZF3 degradation in human MM1.S cells assessed as reduction in IKZF3 level at 0.02 to 2 uM incubated for 12 hrs by immunoblot analysis; type: cell-based; settings: dose 0.02-2 µM
[4] = target: DNA-binding protein Ikaros (Homo sapiens) (UniProt Q13422); test: Induction of IKZF1 degradation in human MM1.S cells assessed as reduction in IKZF1 level at 0.02 to 2 uM incubated for 12 hrs by immunoblot analysis; type: cell-based; settings: dose 0.02-2 µM
[5] = Intrinsic clearance in human liver microsomes measured per gm of protein; type: ADME, Microsome
MM1.S [6] = test: Antitumor activity against human MM1.S cells xenografted in CB17-SCID mouse assessed as reduction in tumor weight at 60 mg/kg, po qd for 14 days and measured after 14 days; type: functional; settings: 336 h, time 14 day
[7] = Metabolic stability in human liver microsomes assessed as parent compound remaining; type: ADME, Microsome
[8] = Intrinsic clearance in human; type: ADME
MM1.S [9] = test: Antiproliferative activity against human MM1.S cells assessed as reduction in cell growth measured after 7 days culturing by CellTiter 96 Aqueous non-radioactive cell proliferation assay; type: functional, cell-based; settings: 168 h
[10] = Half-life in human liver microsomes; type: ADME, Microsome
[11] = Hepatic intrinsic clearance in human; type: ADME

Sequence of Zinc finger protein Aiolos (Homo sapiens) (Q9UKT9 whole entry): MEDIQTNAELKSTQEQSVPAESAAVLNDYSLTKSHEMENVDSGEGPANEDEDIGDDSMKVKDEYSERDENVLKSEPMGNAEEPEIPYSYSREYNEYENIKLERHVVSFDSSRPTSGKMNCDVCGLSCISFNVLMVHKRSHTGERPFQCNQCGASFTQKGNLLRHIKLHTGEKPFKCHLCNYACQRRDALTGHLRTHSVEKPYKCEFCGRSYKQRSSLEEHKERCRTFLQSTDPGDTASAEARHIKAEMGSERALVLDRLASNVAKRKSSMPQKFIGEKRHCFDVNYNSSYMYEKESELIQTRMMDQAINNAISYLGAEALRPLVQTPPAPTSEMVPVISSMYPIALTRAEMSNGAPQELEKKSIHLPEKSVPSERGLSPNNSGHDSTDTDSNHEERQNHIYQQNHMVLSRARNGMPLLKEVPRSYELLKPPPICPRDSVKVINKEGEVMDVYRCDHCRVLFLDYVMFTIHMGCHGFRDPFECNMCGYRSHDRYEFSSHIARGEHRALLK
Sequence of DNA-binding protein Ikaros (Homo sapiens) (Q13422 whole entry): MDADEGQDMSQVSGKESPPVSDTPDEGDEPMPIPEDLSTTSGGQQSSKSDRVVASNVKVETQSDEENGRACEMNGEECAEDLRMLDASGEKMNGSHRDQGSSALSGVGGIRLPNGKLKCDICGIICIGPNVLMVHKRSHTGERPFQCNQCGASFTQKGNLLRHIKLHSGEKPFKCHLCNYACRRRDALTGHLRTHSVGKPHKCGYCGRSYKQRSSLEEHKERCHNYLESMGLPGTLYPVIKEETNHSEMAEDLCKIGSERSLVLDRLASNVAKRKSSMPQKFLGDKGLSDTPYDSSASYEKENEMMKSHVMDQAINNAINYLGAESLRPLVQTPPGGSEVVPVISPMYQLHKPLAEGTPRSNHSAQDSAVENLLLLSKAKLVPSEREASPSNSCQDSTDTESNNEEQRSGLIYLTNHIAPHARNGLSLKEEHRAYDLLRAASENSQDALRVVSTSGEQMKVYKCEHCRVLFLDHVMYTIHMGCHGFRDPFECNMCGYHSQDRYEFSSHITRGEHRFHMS

## COc1ccccc1Sc1cccc2c1CN(C1CCC(=O)NC1=O)C2=O (stereo unspecified)
[1]
  Activity: Dose-dependent effect
[2]
  Activity: Dose-dependent effect

## O=C1CCC(N2Cc3c(Sc4ccc(F)cc4)cccc3C2=O)C(=O)N1 (stereo unspecified)
[3]
  Activity: Active
[4]
  Activity: Active

## Nc1cccc2c1CN(C1CCC(=O)NC1=O)C2=O (stereo unspecified) [LENALIDOMIDE]
[5]
  CLH: 1.8 mL/min/g
MM1.S [6]
  inhibition in vivo at 60 mg/kg/day: 62.6%
[7]
  Stabilty: 91.5%
[8]
  CL: 138.7 mL/min
MM1.S [9]
  IC50: 81 nM
[10]
  half-life: 19.3 h
[11]
  CLH: 127 mL/min
